Among the test systems are 786-0; A498; A549; CAKI-1; COLO 205; HCT-116; HCT-15; Hs-578T; MDA-MB-435; MOLT-4; NCI-H226; OVCAR-5; SF-295; SK-MEL-28; SK-MEL-5; SK-OV-3; T47D; TK-10; U-251; UACC-257.
Holding throughout (test): NCI-60 cell line screen, 48 h

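In this assay, cells in 96-well plates receive the compound at five concentrations for 48 hours. Endpoints are linearly interpolated between the surrounding concentrations. GI50: concentration for 50% inhibition of growth.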 Activity calls are given as the source filed them. No stated cut-off is given here; in the data, active = GI50 up to about 1.1 µM and inactive = higher. A value given as a limit tells only on which side of the number the result lay.

Consider `COc1ccc2[nH]c(C(=O)N3CC(CCl)c4ccc(N)cc43)cc2c1` (stereo not drawn), for which the GI50 in the assay with 786-0 is 0.233 µM (active); in the assay on A498, 0.0789 µM (active); in the assay on A549 it was 0.0964 µM (active); in the assay with CAKI-1, 0.0877 µM (active); in the assay on COLO 205, 0.2 µM (active); with HCT-116, 0.164 µM (active). For the same compound, the GI50 in the assay with HCT-15 is 0.287 µM; in the assay on Hs-578T, 0.335 µM (active); in the assay on MDA-MB-435, 0.264 µM (active); with MOLT-4, 0.165 µM (active); in the assay with NCI-H226, 0.32 µM (active); with OVCAR-5 it was 0.316 µM (active). For the same compound, the GI50 with SF-295 was 0.201 µM (active); in the assay on SK-MEL-28, 0.368 µM (active); in the assay with SK-MEL-5, 0.0451 µM (active); in the assay on SK-OV-3, 0.349 µM (active); in the assay on T47D, 0.455 µM (active); in the assay on TK-10, 0.37 µM (active). Besides, the GI50 was 0.313 µM (active) in the assay with U-251 and 0.241 µM (active) in the assay with UACC-257.
For `COc1cccc2c1C(=O)c1c(O)c3c(c(O)c1C2=O)C[C@@](O)(/C(C)=N/NC(=O)c1ccccc1)C[C@@H]3OC1CC(N)C(O)C(C)O1` (stereo partly drawn), the GI50 is 0.0562 µM (active) with 786-0; 0.51 µM (active) in the assay on A498; 0.206 µM (active) in the assay on A549; 0.141 µM (active) in the assay with CAKI-1; 0.474 µM (active) with COLO 205; 0.19 µM (active) in the assay with HCT-116. The GI50 in the assay with HCT-15 was 1.84 µM; in the assay on Hs-578T, 0.256 µM (active); in the assay on MDA-MB-435, 0.362 µM (active); in the assay on MOLT-4, 0.0324 µM (active); with NCI-H226 it was 0.104 µM (active); with OVCAR-5 it was 0.643 µM (active). Also, the GI50 in the assay with SF-295 is 0.195 µM (active); with SK-MEL-28, 0.973 µM (active); in the assay on SK-MEL-5, 0.161 µM (active); with SK-OV-3, 0.583 µM (active); in the assay on T47D it was 0.159 µM (active); in the assay on TK-10, 0.53 µM (active). The values for the GI50 in the assay with U-251 and in the assay on UACC-257 were 0.147 µM (active) and 0.594 µM (active), respectively.
For the compound `CC1OC(CC(=O)O)CC2=C1C(=O)c1c(O)cccc1C2=O` (stereo not drawn) [NANAOMYCIN], the GI50 is 0.137 µM (active) with 786-0; 0.9 µM (active) in the assay on A498; 2.08 µM (inactive) in the assay with A549; 0.0955 µM (active) with CAKI-1; 0.0474 µM (active) with COLO 205; 0.0499 µM (active) with HCT-116. Further, the GI50 was 0.0538 µM in the assay with HCT-15; 0.142 µM (active) in the assay with Hs-578T; 0.138 µM (active) in the assay on MDA-MB-435; 0.0309 µM (active) in the assay on MOLT-4; 0.977 µM (active) in the assay with NCI-H226; 1.39 µM (inactive) in the assay with OVCAR-5. Also, the GI50 with SF-295 was 1.08 µM (active); in the assay with SK-MEL-28 it was 0.063 µM (active); in the assay with SK-MEL-5, 0.289 µM (active); in the assay with SK-OV-3, 4 µM (inactive); in the assay with T47D it was 0.188 µM (active); in the assay on TK-10 it was 0.929 µM (active). The figures for the GI50 with U-251 and in the assay with UACC-257 were 1.03 µM (active) and 0.0968 µM (active), respectively.
With `Cc1nn(-c2ccccc2)c(C)c1/C=N/N=C1\SCC(=O)N1c1ccccc1`, the GI50 in the assay on 786-0 is 15.8 µM (inactive); in the assay on A498 it was 23.6 µM (inactive); in the assay on A549 it was 28.6 µM (inactive); in the assay on CAKI-1, 19.4 µM (inactive); in the assay on COLO 205 it was 14.9 µM (inactive); in the assay on HCT-116 it was 19.1 µM (inactive). Besides, the GI50 in the assay on HCT-15 is 17.9 µM; with Hs-578T it was 37.2 µM (inactive); in the assay on MDA-MB-435 it was 20.5 µM (inactive); in the assay on MOLT-4, 30.8 µM (inactive); with NCI-H226 it was 23.6 µM (inactive); in the assay on OVCAR-5, 27.7 µM (inactive). Also, the GI50 in the assay on SF-295 is 21.5 µM (inactive); with SK-MEL-28 it was 22.3 µM (inactive); with SK-MEL-5, 15 µM (inactive); in the assay with SK-OV-3 it was 29.8 µM (inactive); with T47D it was 26.5 µM (inactive); in the assay with TK-10, 26.2 µM (inactive). Moreover, the GI50 in the assay on U-251 is 25.8 µM (inactive); with UACC-257 it was 32.4 µM (inactive).
With `Brc1ccc(/C(N=N/C(=N\Sc2ccccc2)c2ccc(Br)cc2)=N/Sc2ccccc2)cc1`, the GI50 with 786-0, in the assay with A498, with A549, with CAKI-1, with COLO 205 and in the assay with HCT-116 was > 100 µM (inactive) each time. Also, the GI50 in the assay on HCT-15 is more than 100 µM; in the assay on Hs-578T, > 100 µM (inactive); in the assay on MDA-MB-435, > 100 µM (inactive); in the assay on MOLT-4, > 100 µM (inactive); in the assay on NCI-H226 it was > 100 µM (inactive); with OVCAR-5 it was > 100 µM (inactive). For the same compound, the GI50 with SF-295, with SK-MEL-28, in the assay with SK-MEL-5, in the assay on SK-OV-3, with T47D and in the assay on TK-10 was > 100 µM (inactive) in each case. Besides, the GI50 in the assay with U-251 and in the assay on UACC-257 was > 100 µM (inactive) throughout.
With `CC1=CCC[C@@H]2[C@@](C)(Cc3cc(O)ccc3O)[C@H](C)CC[C@@]12C`, the GI50 with 786-0 was 6.49 µM (inactive); in the assay on A498, 15.3 µM (inactive); with A549, 4.94 µM (inactive); in the assay with CAKI-1 it was 11.3 µM (inactive); with COLO 205, 18.2 µM (inactive); in the assay with HCT-116, 5.13 µM (inactive). Moreover, the GI50 with HCT-15 was 5 µM; with Hs-578T, 5.92 µM (inactive); in the assay on MDA-MB-435 it was 5.2 µM (inactive); in the assay on MOLT-4 it was 3.48 µM (inactive); with NCI-H226 it was 16.2 µM (inactive); with OVCAR-5, 13.4 µM (inactive). In addition, the GI50 in the assay with SF-295 was 7.28 µM (inactive); in the assay with SK-MEL-28 it was 8.81 µM (inactive); in the assay with SK-MEL-5, 5.43 µM (inactive); in the assay with SK-OV-3, 12.6 µM (inactive); in the assay on T47D, 5.38 µM (inactive); in the assay on TK-10, 9.08 µM (inactive). In addition, the figures for the GI50 in the assay on U-251 and in the assay on UACC-257 were 3.89 µM (inactive) and 11.5 µM (inactive), respectively.
Consider `O=C(CCc1ccc(O)c(O)c1)NCCc1ccccc1`, for which the GI50 is 31.6 µM (inactive) in the assay on 786-0; > 100 µM (inactive) in the assay with A498; 76.9 µM (inactive) in the assay with A549; 6.49 µM (inactive) in the assay with CAKI-1; 23.1 µM (inactive) in the assay on COLO 205; 26.4 µM (inactive) with HCT-116. Moreover, the GI50 is 15.5 µM in the assay with HCT-15; > 82.6 µM (inactive) in the assay on Hs-578T; 15.2 µM (inactive) in the assay with MDA-MB-435; 12.7 µM (inactive) in the assay with MOLT-4; 99.8 µM (inactive) with NCI-H226; > 100 µM (inactive) with OVCAR-5. The GI50 in the assay on SF-295 was > 91.2 µM (inactive); in the assay with SK-MEL-28 it was 85.5 µM (inactive); in the assay with SK-MEL-5, 22.4 µM (inactive); in the assay on SK-OV-3, 65.8 µM (inactive); in the assay with T47D, 34.4 µM (inactive); in the assay on TK-10 it was > 79.8 µM (inactive). Besides, the GI50 in the assay on U-251 is 75 µM (inactive); in the assay on UACC-257 it was > 79.4 µM (inactive).
As to `COc1ccc(/C=C/c2cc(OC)c(OC)c(OC)c2)cc1O[Si](C)(C)C(C)(C)C`, the GI50 in the assay with 786-0 was 10.4 µM (inactive); in the assay with A498 it was 12.7 µM (inactive); with A549 it was 14 µM (inactive); in the assay on CAKI-1, 41.9 µM (inactive); in the assay on COLO 205, 15.7 µM (inactive); with HCT-116, 2.77 µM (inactive). Moreover, the GI50 is 3.33 µM in the assay with HCT-15; 3.15 µM (inactive) with Hs-578T; 2.26 µM (inactive) with MDA-MB-435; 4.22 µM (inactive) in the assay on MOLT-4; 5.19 µM (inactive) in the assay on NCI-H226; 33.5 µM (inactive) with OVCAR-5. Moreover, the GI50 in the assay on SF-295 was 26 µM (inactive); in the assay on SK-MEL-28 it was 25.1 µM (inactive); in the assay with SK-MEL-5 it was 1.98 µM (inactive); in the assay with SK-OV-3, 52.7 µM (inactive); in the assay on T47D, 18.7 µM (inactive); in the assay on TK-10, 27.1 µM (inactive). Also, the GI50 with U-251 was 3.11 µM (inactive); in the assay on UACC-257, 10.4 µM (inactive).
With `Cc1c(O)nc(-n2[nH]c3c(c2=O)CCCC3)[nH]c1=O`, the GI50 with 786-0 is > 100 µM (inactive); with A498, > 100 µM (inactive); in the assay with CAKI-1, > 100 µM (inactive); in the assay with COLO 205 it was > 100 µM (inactive); in the assay with HCT-116 it was > 100 µM (inactive); in the assay with HCT-15, more than 100 µM. The GI50 with Hs-578T, with MDA-MB-435, in the assay with MOLT-4, in the assay with NCI-H226, in the assay on OVCAR-5 and in the assay with SF-295 was > 100 µM (inactive) each time. Also, the GI50 with SK-MEL-28, with SK-MEL-5, in the assay with SK-OV-3, with T47D, in the assay with TK-10 and with U-251 was > 100 µM (inactive) throughout. Also, the GI50 in the assay on UACC-257 was > 100 µM (inactive).
`CN(C)c1ccc(/N=C2/NC(=N\c3ccccc3)/C(=N/c3ccccc3)S2)cc1`: the GI50 was 32 µM (inactive) in the assay with 786-0; 87.3 µM (inactive) in the assay on A498; > 100 µM (inactive) with A549; > 100 µM (inactive) in the assay with CAKI-1; > 100 µM (inactive) in the assay on COLO 205; 85.3 µM (inactive) with HCT-116. The GI50 is more than 100 µM in the assay with HCT-15; 30.7 µM (inactive) in the assay on Hs-578T; > 100 µM (inactive) in the assay with MDA-MB-435; 89.1 µM (inactive) in the assay with MOLT-4; > 100 µM (inactive) with NCI-H226; > 100 µM (inactive) in the assay with OVCAR-5. In addition, the GI50 with SF-295 is > 100 µM (inactive); in the assay with SK-MEL-28, > 100 µM (inactive); with SK-MEL-5, > 100 µM (inactive); in the assay on SK-OV-3 it was 48.9 µM (inactive); in the assay on T47D, 53.1 µM (inactive); with TK-10 it was 62.4 µM (inactive). For the same compound, in the assay with UACC-257, the GI50 was > 100 µM (inactive).

Values taken from ChEMBL document CHEMBL1201862, “PubChem BioAssay data set” (2004).
